In general, IC50 refers to the concentration that inhibits the measured activity by half.

What all share (type): cell-based
The target of assay [1] is human α1G T-type channels (Homo sapiens, UniProt O43497). As to the kind of experiment: T-type calcium channel block, whole cell patch clamp, α1G. The note with it: HEK cells stably expressing human α1G; mainly non-inactivated protocol; values above 10,000 nM represented as 10000. The procedure, abridged:
(§1)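 Whole-cell voltage clamp on stably transfected HEK 293 lines carrying human α1H or α1G. Two voltage protocols used: non-inactivated pre-pulse for resting block, inactivated for voltage-dependent block; test agents perfused locally in external solution (0.1-0.01% DMSO) following ~10 min rest.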
(In patch-clamp work, channel activity is measured electrically.)

For assay [2], the target named is human α1H T-type channels (Homo sapiens, UniProt O95180). As to the kind of experiment: T-type calcium channel block, whole cell patch clamp, α1H. The note with it: HEK cells stably expressing human α1H; mainly non-inactivated protocol; values above 10,000 nM represented as 10000. The procedure, abridged: as §1
Assay [3] has as its target N-type calcium channel subunits (α1B, α2δ, and β3a) (Homo sapiens, UniProt Q00975). The assay is described as follows: Block of Cav2.2 channel, whole cell voltage clamp, manual and PatchXpress. The following applies: Table 5; table follows Assay Example 3 (whole cell voltage clamp / PatchXpress); assay not given. Summed up: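 Percent block taken as current amplitude ratio with versus without compound, applied in rising doses; IC50 fitted where one cell received multiple doses. Protocol: 50 ms pulses to +20 mV at 0.067 Hz from […] or −90 mV holding; P/n leak subtraction, no junction-potential correction; manual and PatchXpress recordings.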

human α1G T-type channels, sequence (O43497 whole entry, the tested form may be a part): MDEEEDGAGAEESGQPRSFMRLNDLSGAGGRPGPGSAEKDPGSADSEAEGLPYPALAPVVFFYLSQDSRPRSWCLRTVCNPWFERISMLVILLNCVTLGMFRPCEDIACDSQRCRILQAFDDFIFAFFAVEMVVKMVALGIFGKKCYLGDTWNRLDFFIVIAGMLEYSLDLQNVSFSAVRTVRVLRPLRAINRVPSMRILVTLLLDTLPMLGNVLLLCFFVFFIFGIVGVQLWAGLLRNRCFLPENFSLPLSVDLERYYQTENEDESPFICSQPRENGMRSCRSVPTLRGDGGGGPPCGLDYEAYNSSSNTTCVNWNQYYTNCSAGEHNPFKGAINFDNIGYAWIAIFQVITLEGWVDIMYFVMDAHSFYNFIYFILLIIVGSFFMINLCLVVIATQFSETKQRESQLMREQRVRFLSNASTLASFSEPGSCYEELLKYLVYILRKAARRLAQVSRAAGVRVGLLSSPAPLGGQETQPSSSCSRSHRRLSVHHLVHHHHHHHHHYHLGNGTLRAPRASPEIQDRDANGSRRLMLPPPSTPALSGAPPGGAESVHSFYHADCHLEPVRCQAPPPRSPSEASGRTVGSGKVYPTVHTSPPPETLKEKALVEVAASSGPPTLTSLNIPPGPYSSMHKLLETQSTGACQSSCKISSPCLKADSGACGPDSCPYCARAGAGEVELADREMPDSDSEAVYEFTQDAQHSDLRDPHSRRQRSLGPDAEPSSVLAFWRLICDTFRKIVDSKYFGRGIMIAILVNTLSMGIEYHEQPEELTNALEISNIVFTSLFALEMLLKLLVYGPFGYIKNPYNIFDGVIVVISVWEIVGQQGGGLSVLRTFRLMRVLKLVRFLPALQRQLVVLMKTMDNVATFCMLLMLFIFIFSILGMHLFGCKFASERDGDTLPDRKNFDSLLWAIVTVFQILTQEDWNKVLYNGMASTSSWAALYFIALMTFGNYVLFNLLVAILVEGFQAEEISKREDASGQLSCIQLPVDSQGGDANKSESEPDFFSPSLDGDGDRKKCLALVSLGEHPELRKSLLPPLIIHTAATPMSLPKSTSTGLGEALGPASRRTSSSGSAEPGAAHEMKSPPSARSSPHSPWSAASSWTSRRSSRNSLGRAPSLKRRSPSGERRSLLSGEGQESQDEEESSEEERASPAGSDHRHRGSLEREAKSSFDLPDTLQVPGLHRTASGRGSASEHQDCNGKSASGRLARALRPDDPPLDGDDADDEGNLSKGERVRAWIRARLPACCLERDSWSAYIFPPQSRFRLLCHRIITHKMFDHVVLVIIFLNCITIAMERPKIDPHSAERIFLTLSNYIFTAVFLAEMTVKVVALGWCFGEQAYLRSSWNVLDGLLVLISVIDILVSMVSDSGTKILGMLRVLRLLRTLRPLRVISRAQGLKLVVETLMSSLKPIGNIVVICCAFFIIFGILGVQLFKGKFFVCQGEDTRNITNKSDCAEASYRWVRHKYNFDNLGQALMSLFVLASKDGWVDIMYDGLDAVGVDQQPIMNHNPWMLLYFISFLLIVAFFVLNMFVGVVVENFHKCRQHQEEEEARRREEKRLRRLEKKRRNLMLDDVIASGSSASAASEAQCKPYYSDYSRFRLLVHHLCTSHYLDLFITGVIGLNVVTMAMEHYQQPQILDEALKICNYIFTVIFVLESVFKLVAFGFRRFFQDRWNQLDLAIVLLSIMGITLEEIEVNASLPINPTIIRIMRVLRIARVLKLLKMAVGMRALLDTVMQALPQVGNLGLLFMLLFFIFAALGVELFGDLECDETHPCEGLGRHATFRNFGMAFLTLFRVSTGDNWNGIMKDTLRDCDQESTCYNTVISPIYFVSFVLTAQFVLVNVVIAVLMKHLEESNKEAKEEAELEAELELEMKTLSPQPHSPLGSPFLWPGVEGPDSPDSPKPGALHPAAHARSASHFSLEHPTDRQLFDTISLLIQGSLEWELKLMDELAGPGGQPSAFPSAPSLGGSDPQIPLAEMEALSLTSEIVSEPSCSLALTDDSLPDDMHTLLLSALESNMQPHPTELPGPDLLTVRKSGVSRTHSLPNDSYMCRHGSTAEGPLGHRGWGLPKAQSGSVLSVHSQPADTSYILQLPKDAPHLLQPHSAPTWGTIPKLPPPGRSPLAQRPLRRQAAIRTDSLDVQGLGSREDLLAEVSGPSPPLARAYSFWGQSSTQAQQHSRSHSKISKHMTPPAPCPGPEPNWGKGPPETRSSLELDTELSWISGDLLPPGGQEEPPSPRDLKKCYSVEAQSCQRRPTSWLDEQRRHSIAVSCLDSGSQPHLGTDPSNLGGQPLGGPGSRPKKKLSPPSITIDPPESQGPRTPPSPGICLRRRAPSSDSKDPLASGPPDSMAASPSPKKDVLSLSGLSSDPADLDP
human α1H T-type channels, sequence (O95180 whole entry): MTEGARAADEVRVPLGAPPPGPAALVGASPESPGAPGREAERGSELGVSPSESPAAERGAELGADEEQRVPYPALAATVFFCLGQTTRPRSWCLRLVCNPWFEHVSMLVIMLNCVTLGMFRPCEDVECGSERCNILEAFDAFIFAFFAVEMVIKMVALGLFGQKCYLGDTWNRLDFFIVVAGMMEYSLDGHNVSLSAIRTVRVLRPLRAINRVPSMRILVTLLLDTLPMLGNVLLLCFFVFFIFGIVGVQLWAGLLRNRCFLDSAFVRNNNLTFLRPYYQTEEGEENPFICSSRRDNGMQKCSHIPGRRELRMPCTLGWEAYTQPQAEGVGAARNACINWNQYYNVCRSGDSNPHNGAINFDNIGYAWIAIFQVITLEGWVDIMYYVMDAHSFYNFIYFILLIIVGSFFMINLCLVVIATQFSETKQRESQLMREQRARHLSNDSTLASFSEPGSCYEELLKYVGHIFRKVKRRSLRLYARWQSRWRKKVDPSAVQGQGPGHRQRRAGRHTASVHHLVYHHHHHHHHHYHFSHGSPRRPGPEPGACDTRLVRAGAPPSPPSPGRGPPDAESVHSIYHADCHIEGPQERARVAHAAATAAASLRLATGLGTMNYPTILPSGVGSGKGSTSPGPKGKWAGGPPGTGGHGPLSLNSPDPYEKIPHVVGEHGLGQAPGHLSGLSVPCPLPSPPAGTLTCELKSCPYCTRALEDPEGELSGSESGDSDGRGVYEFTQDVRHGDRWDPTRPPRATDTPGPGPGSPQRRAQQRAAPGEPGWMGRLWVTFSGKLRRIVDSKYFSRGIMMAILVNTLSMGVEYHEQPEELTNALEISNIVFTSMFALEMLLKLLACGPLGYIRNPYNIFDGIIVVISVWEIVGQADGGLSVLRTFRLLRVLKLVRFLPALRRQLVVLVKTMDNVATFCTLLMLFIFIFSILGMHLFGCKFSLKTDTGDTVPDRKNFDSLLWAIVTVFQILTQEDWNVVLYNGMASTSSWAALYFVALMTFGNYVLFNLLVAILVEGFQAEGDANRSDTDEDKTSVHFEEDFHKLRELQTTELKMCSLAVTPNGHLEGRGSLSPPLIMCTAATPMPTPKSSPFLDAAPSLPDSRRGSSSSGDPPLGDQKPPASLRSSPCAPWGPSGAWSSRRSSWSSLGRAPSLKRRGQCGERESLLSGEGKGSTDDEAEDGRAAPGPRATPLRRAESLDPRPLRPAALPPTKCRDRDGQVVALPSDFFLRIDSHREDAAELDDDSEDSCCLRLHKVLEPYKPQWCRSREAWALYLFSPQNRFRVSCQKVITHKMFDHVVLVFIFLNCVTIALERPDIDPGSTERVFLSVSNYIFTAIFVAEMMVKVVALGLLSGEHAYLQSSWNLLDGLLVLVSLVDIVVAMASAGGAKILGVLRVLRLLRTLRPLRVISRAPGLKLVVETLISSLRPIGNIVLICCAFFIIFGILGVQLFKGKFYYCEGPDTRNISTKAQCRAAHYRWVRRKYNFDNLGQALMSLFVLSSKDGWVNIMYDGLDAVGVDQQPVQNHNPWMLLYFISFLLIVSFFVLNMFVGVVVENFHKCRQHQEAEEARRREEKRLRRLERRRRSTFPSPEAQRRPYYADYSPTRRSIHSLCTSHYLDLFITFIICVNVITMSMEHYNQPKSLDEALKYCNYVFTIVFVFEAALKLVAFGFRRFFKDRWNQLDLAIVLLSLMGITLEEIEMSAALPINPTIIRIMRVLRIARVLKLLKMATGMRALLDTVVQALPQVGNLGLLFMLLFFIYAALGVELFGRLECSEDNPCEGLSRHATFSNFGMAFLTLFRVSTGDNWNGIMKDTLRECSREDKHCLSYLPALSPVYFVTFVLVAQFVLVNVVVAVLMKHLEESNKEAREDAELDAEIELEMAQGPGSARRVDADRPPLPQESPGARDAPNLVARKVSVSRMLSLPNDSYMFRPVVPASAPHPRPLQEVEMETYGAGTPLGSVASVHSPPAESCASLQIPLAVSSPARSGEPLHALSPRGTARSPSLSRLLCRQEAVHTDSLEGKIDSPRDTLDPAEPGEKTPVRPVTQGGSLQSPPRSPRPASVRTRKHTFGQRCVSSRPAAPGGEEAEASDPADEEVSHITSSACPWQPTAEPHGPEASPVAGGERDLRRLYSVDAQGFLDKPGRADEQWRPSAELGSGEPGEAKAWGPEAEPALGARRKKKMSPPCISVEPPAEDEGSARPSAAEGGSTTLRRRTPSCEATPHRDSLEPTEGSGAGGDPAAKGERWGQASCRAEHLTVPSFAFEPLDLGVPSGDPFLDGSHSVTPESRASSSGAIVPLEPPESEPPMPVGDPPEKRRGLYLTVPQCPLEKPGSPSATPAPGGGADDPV

As to `O=C(N[C@H]1CC[C@@H](S(=O)(=O)c2cccc(C(F)(F)F)c2)CC1)c1ccc(Cl)c(OC(F)(F)F)c1` [Compound 133, 4-chloro-3-(trifluoromethoxy)-N-((1S,4S)-4-(3-(trifluoromethyl)phenylsulfonyl)cyclohexyl)benzamide], the IC50 in assay [1] is 350 nM; in assay [2], 400 nM; in assay [3], 210 nM.
As to `CC(C)S(=O)(=O)c1cc(C(F)(F)F)cnc1C(=O)N[C@H]1CC[C@H](S(=O)(=O)c2cccc(C(F)(F)F)c2)CC1` [Compound 340, 3-(isopropylsulfonyl)-5-(trifluoromethyl)-N-((1R,4R)-4-(3-(trifluoromethyl)phenylsulfonyl)cyclohexyl) picolinamide], the IC50 in assay [1] is 9870 nM; in assay [2], 3170 nM; in assay [3], 2010 nM.
Take `O=C(N[C@H]1CC[C@@](F)(S(=O)(=O)c2cccc(C(F)(F)F)c2)CC1)c1cn2cc(C(F)(F)F)ccc2n1` [Compound 264, N-((1S,4S)-4-fluoro-4-(3-(trifluoromethyl)phenylsulfonyl)cyclohexyl)-6-(trifluoromethyl)imidazo[1,2-a]pyridine-2-carboxamide]: the IC50 is 4480 nM in assay [1], greater than 10000 nM in assay [2] and 470 nM in assay [3].
Turning to `O=C(N[C@H]1CC[C@](F)(S(=O)(=O)c2cccc(C(F)(F)F)c2)CC1)c1ccc(F)c(C(F)(F)F)c1` [Compound 83, 4-fluoro-N-((1R,4R)-4-fluoro-4-(3-(trifluoromethyl)phenylsulfonyl)cyclohexyl)-3-(trifluoromethyl)benzamide], the results for the IC50 in assay [1], in assay [2] and in assay [3] were 2850 nM, 960 nM and 480 nM, respectively.
Take `COc1cc(F)cc(C(=O)NC2(C)CCC(F)(S(=O)(=O)c3cccc(C(F)(F)F)c3)CC2)c1` (stereo not drawn) [Compound 94, 3-fluoro-N-(4-fluoro-1-methyl-4-(3-(trifluoromethyl)phenylsulfonyl)cyclohexyl)-5-methoxybenzamide]: the IC50 in assay [1] was greater than 10000 nM; in assay [2], greater than 10000 nM; in assay [3], 230 nM.
As to `CC1(NC(=O)c2ccc(C(F)(F)F)nc2S(C)(=O)=O)CCC(S(=O)(=O)c2cccc(C(F)(F)F)c2)CC1` (stereo not drawn) [Compound 316, N-(1-methyl-4-(3-(trifluoromethyl)phenylsulfonyl)cyclohexyl)-2-(methylsulfonyl)-6-(trifluoromethyl)nicotinamide], the IC50 in assay [1] worked out at 3990 nM; in assay [2], 2910 nM; in assay [3], 3120 nM.
`O=C(N[C@H]1CC[C@@](F)(S(=O)(=O)c2cccc(C(F)(F)F)c2)CC1)c1cc(C(F)(F)F)ccn1` [Compound 84, N-((1S,4S)-4-fluoro-4-(3-(trifluoromethyl)phenylsulfonyl)cyclohexyl)-4-(trifluoromethyl)picolinamide]: the IC50 in assay [1] came out at 2870 nM; in assay [2], 650 nM; in assay [3], 310 nM.
Turning to `O=C(N[C@H]1CC[C@@](F)(S(=O)(=O)c2cc(F)cc(C(F)(F)F)c2)CC1)c1ccc(F)c(C(F)(F)F)c1` [Compound 325, 4-fluoro-N-((1S,4S)-4-fluoro-4-(3-fluoro-5-(trifluoromethyl)phenylsulfonyl)cyclohexyl)-3-(trifluoromethyl)benzamide], the IC50 was determined as 2400 nM in assay [1], 1330 nM in assay [2] and 320 nM in assay [3].
In the case of `CS(=O)(=O)c1cc(Cl)ccc1C(=O)NC[C@H]1C[C@H](S(=O)(=O)c2cccc(C(F)(F)F)c2)C1` [Compound 368, 4-chloro-2-(methylsulfonyl)-N-(((1R,3R)3-(3-(trifluoromethyl)phenylsulfonyl)cyclobutyl)methyl)benzamide], the results for the IC50 in assay [1], in assay [2] and in assay [3] were 950 nM, 400 nM and 940 nM, respectively.
For the compound `Cn1nc(C(F)(F)F)cc1C(=O)NC[C@H]1C[C@H](S(=O)(=O)c2cccc(C(F)(F)F)c2)C1` [Compound 355, 1-methyl-3-(trifluoromethyl)-N-(((1R,3R)-3-(3-(trifluoromethyl)phenylsulfonyl)cyclobutyl)methyl)-1H-pyrazole-5-carboxamide], the values for the IC50 in assay [1], in assay [2] and in assay [3] were 1430 nM, 740 nM and 190 nM, respectively.
The corresponding values for `O=C(CNC1CCC(F)(F)CC1)N[C@H]1CC[C@H](CS(=O)(=O)c2cccc(C(F)(F)F)c2)CC1` [Compound 165, 2-(4,4-difluorocyclohexylamino)-N-((1R,4R)-4-((3-(trifluoromethyl)phenylsulfonyl)methyl)cyclohexyl)acetamide] are 4370 nM, 1390 nM and 540 nM.
Taken in the same sequence, the figures for `O=C(N[C@H]1CC[C@@](F)(S(=O)(=O)c2cccc(C(F)(F)F)c2)CC1)[C@@H]1C[C@@H](c2ccccc2)CN1` [Compound 285, (2S,4S)-N-((1S,4R)-4-fluoro-4-(3-(trifluoromethyl)phenylsulfonyl)cyclohexyl)-4-phenylpyrrolidine-2-carboxamide] were greater than 10000 nM, 1280 nM and 360 nM.
Take “3-chloro-4-fluoro-N-((1R,4R)4-(3- (trifluoromethyl)phenylsulfonyl) cyclohexyl)benzamide [Compound 124]”: the IC50 was found to be 350 nM in assay [1], 540 nM in assay [2] and 510 nM in assay [3].
On to `O=C(N[C@H]1C[C@H](CS(=O)(=O)c2cccc(C(F)(F)F)c2)C1)c1ccc(F)c(Cl)c1` [Compound 348, 3-chloro-4-fluoro-N-((1R,3R)-3-((3-(trifluoromethyl)phenylsulfonyl)methyl)cyclobutyl)benzamide], for which the IC50 is 4520 nM in assay [1], 540 nM in assay [2] and 1030 nM in assay [3].
Take `CC(C)(C)CC(=O)N[C@H]1CC[C@@](F)(S(=O)(=O)c2cccc(C(F)(F)F)c2)CC1` [Compound 278, N-((1S,4S)-4-fluoro-4-(3-(trifluoromethyl)phenylsulfonyl)cyclohexyl)-3,3-dimethylbutanamide]: the IC50 in assay [1] turned out to be 2480 nM; in assay [2], 2230 nM; in assay [3], 280 nM.
The corresponding values for `CN(C(=O)c1ncc(C(F)(F)F)cc1S(C)(=O)=O)[C@H]1CC[C@@](F)(S(=O)(=O)c2cc(F)cc(C(F)(F)F)c2)CC1` [Compound 337, N-((1S,4S)-4-fluoro-4-(3-fluoro-5-(trifluoromethyl)phenylsulfonyl)cyclohexyl)-N-methyl-3-(methylsulfonyl)-5-(trifluoromethyl)picolinarnide] are greater than 10000 nM, 8660 nM and 910 nM.
Take `O=C(Nc1cncc(Cl)c1)[C@H]1C[C@H](S(=O)(=O)c2cccc(C(F)(F)F)c2)C1` [Compound 419, (1R,3R)-N-(5-chloropyridin-3-yl)-3-(3-(trifluoromethyl)phenylsulfonyl)cyclobutane carboxamide]: the figures for the IC50 in assay [1], in assay [2] and in assay [3] were greater than 10000 nM, greater than 10000 nM and 3430 nM, respectively.
`O=C(CNC[C@H]1CC[C@@H](S(=O)(=O)c2cccc(C(F)(F)F)c2)CC1)NCC(F)(F)F` [Compound 37, N-(2,2,2-trifluoroethyl)-2-(((1S,4S)-4-(3-(trifluoromethyl)phenylsulfonyl)cyclohexyl)methylamino)acetamide]: the IC50 in assay [1] is 9280 nM; in assay [2] it was 3620 nM; in assay [3] it was 1310 nM.
Take `O=C(N[C@H]1CC[C@@](F)(S(=O)(=O)c2cccc(C(F)(F)F)c2)CC1)C1CCCC1` [Compound 277, N-((1S,4S)-4-fluoro-4-(3-(trifluoromethyl)phenylsulfonyl)cyclohexyl) cyclopentanecarboxamide]: the IC50 in assay [1] was determined as 2460 nM; in assay [2], 540 nM; in assay [3], 470 nM.
On to `CN(C(=O)CNC1CCC(S(=O)(=O)c2cccc(C(F)(F)F)c2)CC1)C(C)(C)C` (stereo not drawn) [Compound 23, N-tert-butyl-N-methyl-2-(4-(3-(trifluoromethyl)phenylsulfonyl)cyclohexylamino)acetamide], for which the IC50 in assay [1] was determined as 2790 nM; in assay [2], 1190 nM; in assay [3], 240 nM.
`O=C(NC[C@H]1C[C@H](S(=O)(=O)c2cccc(C(F)(F)F)c2)C1)c1ccc(Cl)c(OC(F)(F)F)c1` [Compound 366, 4-chloro-3-(trifluoromethoxy)-N-(((1R,3R)-3-(3-(trifluoromethyl)phenylsulfonyl)cyclobutyl)methyl)benzamide]: the IC50 is greater than 10000 nM in assay [1], greater than 10000 nM in assay [2] and 190 nM in assay [3].
As for `O=C(NC[C@H]1C[C@@H](S(=O)(=O)c2cccc(C(F)(F)F)c2)C1)c1ccnc(C(F)(F)F)n1` [Compound 383, 2-(trifluoromethyl)-N-(((1S,3S)-3-(3-(trifluoromethyl)phenylsulfonyl)cyclobutyl)methyl)pyrimidine-4-carboxamide], the values for the IC50 in assay [1], in assay [2] and in assay [3] were greater than 10000 nM, 5950 nM and 1360 nM, respectively.
With `Cn1nc(C(F)(F)F)cc1C(=O)N[C@H]1C[C@H](CS(=O)(=O)c2cccc(C(F)(F)F)c2)C1` [Compound 350, 1-methyl-3-(trifluoromethyl)-N-((1R,3R)-3-((3-(trifluoromethyl)phenylsulfonyl)methyl)cyclobutyl)-1H-pyrazole-5-carboxamide], the IC50 is greater than 10000 nM in assay [1], greater than 10000 nM in assay [2] and 1410 nM in assay [3].

Source of the values: patent publication US20120245137A1 (Zalicus Pharmaceuticals Ltd., priority 2009, published 2012).
